1 molecule from patent US9504676B2, “Molecules inhibiting a metabolic pathway involving the Syk protein tyrosine kinase and method for identifying said molecules” (CENTRE NATIONAL DE LA RECHERCHE SCIENTIFIQUE, priority 2008, dated 2016) can be followed below.

Molecules are shown by their SMILES.

The assay deals with ERK1/2. Nature of the assay: MAP kinase activation: ERK1/2 phosphorylation level. Format: cell-based. The following applies: high C-13 concentration. The method, then: The association of SLP-76 with Vav and/or Nck plays a role in optimal MAP kinase activation in mast cells^27.
• 1) Chemical products and antibodies. A chemical bank of 3000 molecules (a varied subset) was acquired from ChemBridge, Inc. (San Diego, Calif.). Stocks of solutions of small molecules were prepared at a rate of 10 mM in DMSO (dimethylsulphoxide), except for C-13 (methyl 2-{5-[(3-benzyl-4-oxo-2-thioxo-1,3-thiazolidin-5-ylidene)methyl]-2-furyl}benzoate, ChemBridge ID No. 6197026) prepared in DMF (dimethylformamide). Unless specified otherwise, all the reagents were supplied by Sigma. Dinitrophenyl (DNP) hapten was acquired from Calbiochem. Sepharose GammaBind G and all the secondary antibodies were supplied by GE Health Amersham Biosciences. […] The binding of G4G11 with Syk was assessed by adding the 9E10 monoclonal antibody conjugated with HRP detecting the amino acid sequence EQKLISEEDLN of human c-myc protein located at the C-terminal end of the scFv fragment. To generate Syk mutants, targeted mutagenesis was used on GST:Syk 6-242 protein and the binding of G4G11 with the mutants was assessed in the presence of 5 μM of C-13. • 3) Cells, culture conditions and functional tests. […] The level of β-hexosaminidase released was measured 10 min later and the TNF-α titration was performed by means of a cytotoxicity test on L929 cells as described previously^10, 3 hours after stimulation. […]

Consider `COC(=O)c1ccccc1-c1ccc(/C=C2/SC(=S)N(Cc3ccccc3)C2=O)o1` [Molecule C-13, methyl 2-{5-[(3-benzyl-4-oxo-2-thioxo-1,3-thiazolidin-5-ylidene)methyl]-2-furyl}benzoate], for which the “phosphorylation level ERK1/2” value was “reduces”.
